Experimental findings from patent US7626044B2, “Triptolide derivatives and their uses” (priority 2002, dated 2009) are described below.

Each structure is given as a SMILES string. Where “and” joins values, the source holds several entries; their conditions need not be identical. Identical values can stand only once.

As usually defined, the LD50 is the dose expected to kill half of the subjects tested.

Series [1] can be described thus: MTT cytotoxic assay. The conditions noted are these: mouse; restated; read-out: IC50 (lymphocyte cytotoxicity, restated). In kind it is cell-based, mouse. As to the method: (§1) Mice were sacrificed by cervical dislocation, and spleens were collected under sterile conditions then teased through a nylon mesh. Erythrocytes were lysed. Cells were washed and resuspended at 5×10^6/ml in RPMI-1640 media supplemented with 10% FBS.
(§2) For one 96 well plate assay, 90 μl of cells, 45 μl of sample and 45 μl of RPMI-1640 media with 10% FBS were added into each well with the final volume 180 μl. The negative control wells (containing 90 μl of RPMI-1640 media with 10% FBS and 90 pt of cells), blank control (180 μl of RPMI-1640 media with 10% FBS) were also performed. Incubate plate for 48 hours at 37° C., 5% CO2 in a humidified incubator. 18 μl of MTT solution (5 mg/ml) was added for 6-7 h.
(§3) 90 μl of MTT lysis solution was added to each well followed by a further incubation at 37° C. for 6-7 h. And the absorbance was measured at 570 nm using a plate reader.
On the technique in general: Tetrazolium dyes change colour on reduction, which living cells bring about.

For series [2], the system named is lymphocyte. The experiment in a line: MTT cytotoxic assay. Particulars: Lymphocyte, read-out: IC50 (concentration required to reduce the viability of cells by 50%); mouse spleen cells, 48 hours, MTT. In kind it is cell-based, mouse. How it is done:
as §1, §2, §3

In series [3] the test system is T lymphocyte. The experiment in a line: ConA induced T-lymphocyte proliferation ([3H]thymidine). The format is cell-based, mouse. The conditions noted are these: 48 h. As to the method: (§4) Mice were sacrificed by cervical dislocation, and spleens were collected under sterile conditions then teased through a nylon mesh. Erythrocytes were lysed. Cells were washed and resuspended at 5×10^6/ml in RPMI-1640 media containing 10% FBS. For one 96 well plate assay, 100 pt of cells, 50 μl of sample and 50 μl of ConA/LPS were added into each well with the final volume 200 μl. The control wells were set up with 50 μl of RPMI-1640 media instead of ConA/LPS.
(§5) Plates were incubated for 48 h (ConA) or 60 h (LPS), respectively, at 37° C., 5% CO2 in a humidified incubator. In the last 8 h of incubation, 25 μl (1.9×10^10 Bq) of [^3H]thymidine was added. After plates were incubated for 48 h, the plates (ConA) were stored at −20° C., then after another 12 h, the plates (LPS) were stored at −20° C.
(§6) At the end of incubation, pulsed cells were harvested on a glass filter using a cell harvester ([…]96®, TOMTEC) and allowed to dry. Incorporation of radioactive thymidine was determined by using liquid Scintillation and Luminescence Counters (MicroBeta Trilux®, PerkinElmer).

Series [4] concerns B lymphocyte. The series can be described thus: LPS induced B-lymphocyte proliferation ([3H]thymidine). Particulars: 60 h. In kind it is cell-based, mouse. As to the method: as §4, §5, §6
Series [5] deals with DNFB-induced mouse DTH response. The series can be described thus: DNFB-induced mouse delayed type hypersensitivity response (DTH). The format is in vivo. Particulars: Balb/c mice. How it is done:
Female Balb/c mice (age of 6-8 wk) were randomly divided into groups and immunized with 20 μl 0.5% DNFB solution in absolute acetone-olive oil (4:1) on each hind foot on day 0 and 1;
7-9 days after the initial immunization, mice were boosted with 10 μl 0.4% DNFB on both sides of the left ear, whereas the right ear was treated with vehicle alone;
Compounds were administered intraperitoneally (i.p.) or orally (p.o.) to the mice 1 h before DNFB booster immunization and 12 h later.
Ear swelling and other indexes were assessed 24-48 h after booster immunization.
Note: Female ICR mice (age of 6-8 wk) were immunized with 0.7% DNFB solution and boosted with 0.6% DNFB solution.

Series [6] in a line: Acute toxicity (LD50) test in mice, intraperitoneal injection. The format is in vivo, mouse. The conditions noted are these: mouse, in vivo, ip; mice, single intraperitoneal injection, 14 days, Bliss' method. As to the method:
Mice were single administered with LLDT-8 by intraperitoneal injection, and observed for clinical signs of toxicity immediately and the following 14 days. Necropsy was performed on all animals that died and on all survivors at the end of the 2-week study. Death was seen from the next day after treatment and reached a peak at the 2-4 day. All gross pathological changes should be recorded for each animal. There was no gender difference in survival.
LLDT-8 is much less toxic than its parent compound, […].

In the case of `CC(C)[C@]12O[C@H]1[C@@H]1O[C@]13[C@]1(O[C@H]1C[C@H]1C4=C(CC[C@@]13C)C(=O)OC4)[C@@H]2O` [LLDT-2, triptolide], the IC50 in series [1] was 2 nM; in series [2], 0.00074 µg/mL and 2 nM. Also, the “ED50 for inhibiting T lymphocyte proliferation induced by ConA” value in series [3] was 2.44 ng/mL. The EC50 in series [3] (Mus musculus, T-lymphocyte, read-out: ED50 for inhibiting T lymphocyte proliferation induced by ConA) was determined as 6.8 nM; in series [4] (Mus musculus, Lymphocyte, read-out: ED50 for inhibiting B lymphocyte proliferation induced by LPS) it was 6.6 nM. The “ED50 for inhibiting B lymphocyte proliferation induced by LPS” value in series [4] was found to be 2.38 ng/mL. Further, the “Body weight after i.p.” value in series [5] (Table 8, i.p., dosage 40 (mg/kg), control 21.9) amounted to 21.2 g. The “Body weight before i.p.” value in series [5] (Table 8, i.p., dosage 40 (mg/kg), control 22.4) worked out at 21.5 g. In addition, the “Ear swelling X ± SD” value in series [5] (Table 8, i.p., dosage 40 (mg/kg), control 22.7 ± 2.1) is listed as 17.7 ± 5.7 mg. In addition, the Right ear in series [5] (Table 8, i.p., dosage 40 (mg/kg), control 26.4) was determined as 30.2 mg; in series [5] (Table 9, p.o., dosage 0.2 mg/kg, control 25.9) it was 24.5 mg. Also, the Left ear worked out at 47.9 mg in series [5] (Table 8, i.p., dosage 40 (mg/kg), control 49.1) and 41.2 mg in series [5] (Table 9, p.o., dosage 0.2 mg/kg, control 49.3). The Spleen in series [5] (Table 8, i.p., dosage 40 (mg/kg), control 154.0) turned out to be 151.4 mg; in series [5] (Table 9, p.o., dosage 0.2 mg/kg, control 125.8) it was 127.0 mg. The “Body weight after (i.p.)” value in series [5] (Table 9, p.o., dosage 0.2 mg/kg, control 19) worked out at 20 g. In series [5] (Table 9, p.o., dosage 0.2 mg/kg, control 20), the “Body weight before (i.p.)” value was 21 g. Besides, in series [5] (Table 9, p.o., dosage 0.2 mg/kg, control 23.4), the Ear swelling is on record as 16.7 mg. In series [6], this compound registered an LD50 at 14 days of 0.5 mg/kg.
